# Reference: US9327038B2, “Stable activatable particles as radiotherapeutic agents for the treatment of disease” (The University of North Carolina at Chapel Hill, priority 2011, dated 2016)
# How the values were obtained:
# [1] = test system: SKOV-3 human ovarian tumor cells; experiment: Survival of SKOV-3 ovarian tumor mice after intraperitoneal treatment; format: in vivo, athymic (nu/nu) mice; settings: 73-day period following implantation; i.p. injection twenty days after implantation (108.7 μCi for ^166Ho groups)
# Method: An additional 14 SKOV-3 ovarian tumor mice received no treatment and served as the control group.
# Statistical analyses were performed to compare the fraction of mice that survived over the course of the 73-day period following implantation. […] FIG. 6.
# NSCLC A549-luc-c8 cells = experiment: Biodistribution after intravenous injection in NSCLC A549-luciferase tumor-bearing mice; format: in vivo, athymic (nu/nu) mice; settings: one week after i.v. injection, 300 μCi (Example 14 particles)
# Method: NSCLC A549-luciferase tumor-bearing mice were prepared by injecting approximately one million NSCLC A549-luc-c8 cells into the lung parenchyma of athymic (nu/nu) mice. Implantation and tumor progression were monitored by detecting luciferase bioluminescence following luciferin injections. FIG. 15A.
# [2] = test system: SKOV-3 human ovarian tumor cells; settings: mouse, in vivo, ip
# Method: SKOV-3 ovarian tumor mice were prepared by injecting approximately 7×10^6 SKOV-3 human ovarian tumor cells into the peritoneal cavity of athymic (nu/nu) mice. Following a two-month incubation period, magnetic resonance imaging (MRI) was used to visualize the resultant tumors.
# Biodistribution studies were performed 24 hours after injection by removing various organs from the mice and quantifying the ^166Ho content of each organ using a 2470 Wizard Automatic Gamma Counter (PerkinElmer Inc., Waltham, Mass.).
smiles,measurement,setting,value
CC(=O)C=C(C)[O][166Ho]([O]C(C)=CC(C)=O)[O]C(C)=CC(C)=O [^166Ho(AcAc)3],surviving animals,[1],66.7%
same,"^166Ho in tumors, percent initial dose per gram",NSCLC A549-luc-c8 cells,not retained
same,"^166Ho in tumors, percent initial dose per gram",[2],15.4±2.7 % ID/g
